Measurements: PubChem BioAssay AID330 (DTP/NCI, 2004)
Several values for one entry are separate records, joined by “and”; a condition that tells them apart may be missing. Identical values can stand only once. Inconclusive results and toxic doses are left out. The calls were made as follows: active = survival T/C of 150% or more; inactive = T/C below 125% in these data.

System: P388 leukemia ip, CD2F1 mice, survival T/C
Experiment: NCI In Vivo Anticancer Drug Screen. Data for tumor model P388 Leukemia (intraperitoneal) in CD2F1 (CDF1) mice
Conditions: endpoint: median survival time, higher = longer survival
Summary of the method: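 Mice carrying the transplanted tumor received test compound or vehicle. Survival was recorded in each group, and the value is the treated-group measurement divided by that of the vehicle-treated control group.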

[1] = dose: 12.5 mg/kg/injection, schedule: Q04DX003 (ip), vehicle: saline
[2] = dose: 25.0 mg/kg/injection, schedule: Q04DX003 (ip), vehicle: saline

Measured: T/C

O=C(N/N=C/c1ccc(Cl)cc1)c1cc2ccccc2oc1=O
inactive: dose: 100.0 mg/kg/injection, schedule: Q01DX001 (ip), vehicle: saline 100 % of control | dose: 200.0 mg/kg/injection, schedule: Q01DX001 (ip), vehicle: saline 103 % of control | dose: 400.0 mg/kg/injection, schedule: Q01DX001 (ip), vehicle: saline 105 % of control

NC(=O)NC(=O)/C=C/C(=O)OCCCl
inactive: dose: 6.25 mg/kg/injection, schedule: Q01DX005 (ip), vehicle: Klucel (hydroxypropylcellulose) (HPC) 102 % of control | dose: 12.5 mg/kg/injection, schedule: Q01DX005 (ip), vehicle: Klucel (hydroxypropylcellulose) (HPC) 89 % of control | dose: 25.0 mg/kg/injection, schedule: Q01DX005 (ip), vehicle: Klucel (hydroxypropylcellulose) (HPC) 94 % of control | dose: 50.0 mg/kg/injection, schedule: Q01DX005 (ip), vehicle: Klucel (hydroxypropylcellulose) (HPC) 101 % of control

CC(C)COCCCN
inactive: dose: 12.5 mg/kg/injection, schedule: Q01DX009 (ip), vehicle: saline 100 % of control | [1] 91 % of control | dose: 25.0 mg/kg/injection, schedule: Q01DX009 (ip), vehicle: saline 100 % of control | [2] 100 % of control | dose: 50.0 mg/kg/injection, schedule: Q01DX009 (ip), vehicle: saline 100 % of control | dose: 50.0 mg/kg/injection, schedule: Q04DX003 (ip), vehicle: saline 91 % of control

COC(=O)C(C)NC(=O)c1c2nc3c(C(=O)NC(C)C(=O)OC)ccc(C)c3oc-2c(C)c(=O)c1N (stereo not given)
inactive: dose: 3.12 mg/kg/injection, schedule: Q01DX005 (ip), vehicle: distilled water + Tween-80 100 % of control | dose: 3.12 mg/kg/injection, schedule: Q01DX005 (ip), vehicle: saline with Tween-80 98 % of control | dose: 6.25 mg/kg/injection, schedule: Q01DX005 (ip), vehicle: distilled water + Tween-80 100 % of control and 102 % of control | dose: 6.25 mg/kg/injection, schedule: Q01DX005 (ip), vehicle: saline with Tween-80 97 % of control | dose: 12.5 mg/kg/injection, schedule: Q01DX005 (ip), vehicle: distilled water + Tween-80 96 % of control | dose: 12.5 mg/kg/injection, schedule: Q01DX005 (ip), vehicle: saline with Tween-80 87 % of control and 92 % of control | dose: 25.0 mg/kg/injection, schedule: Q01DX005 (ip), vehicle: distilled water + Tween-80 89 % of control and 94 % of control | dose: 50.0 mg/kg/injection, schedule: Q01DX005 (ip), vehicle: distilled water + Tween-80 90 % of control | dose: 50.0 mg/kg/injection, schedule: Q01DX005 (ip), vehicle: saline with Tween-80 89 % of control | dose: 100.0 mg/kg/injection, schedule: Q01DX005 (ip), vehicle: saline with Tween-80 89 % of control | dose: 200.0 mg/kg/injection, schedule: Q01DX005 (ip), vehicle: saline with Tween-80 92 % of control

CN(C)Cc1c(N=Nc2cccc3c(N=Nc4[nH]c5ccccc5c4CN(C)C)cccc23)[nH]c2ccccc12
inactive: dose: 50.0 mg/kg/injection, schedule: Q01DX009 (ip), vehicle: saline with Tween-80 110 % of control | dose: 100.0 mg/kg/injection, schedule: Q01DX009 (ip), vehicle: saline with Tween-80 108 % of control | dose: 200.0 mg/kg/injection, schedule: Q01DX009 (ip), vehicle: saline with Tween-80 89 % of control

CC1CCC(OC(=O)N(CCCl)N=O)CC1 (stereo not given)
inactive: dose: 3.12 mg/kg/injection, schedule: Q01DX001 (ip), vehicle: saline with Tween-80 100 % of control | dose: 6.25 mg/kg/injection, schedule: Q01DX001 (ip), vehicle: saline with Tween-80 108 % of control | dose: 12.5 mg/kg/injection, schedule: Q01DX001 (ip), vehicle: saline with Tween-80 111 % of control | dose: 25.0 mg/kg/injection, schedule: Q01DX001 (ip), vehicle: saline with Tween-80 118 % of control | dose: 50.0 mg/kg/injection, schedule: Q01DX001 (ip), vehicle: saline with Tween-80 105 % of control | dose: 100.0 mg/kg/injection, schedule: Q01DX001 (ip), vehicle: saline with Tween-80 114 % of control and 86 % of control | dose: 150.0 mg/kg/injection, schedule: Q01DX001 (ip), vehicle: saline with Tween-80 100 % of control

Cc1cc(C)n(-c2ccc([N+](=O)[O-])cn2)n1
inactive: dose: 100.0 mg/kg/injection, schedule: Q04DX003 (ip), vehicle: saline 99 % of control | dose: 200.0 mg/kg/injection, schedule: Q04DX003 (ip), vehicle: saline 96 % of control | dose: 400.0 mg/kg/injection, schedule: Q04DX003 (ip), vehicle: saline 99 % of control

COC(=O)c1[c]([Sn]([CH3])([CH3])[CH3])n[n]([Pb]([CH3])([CH3])[CH3])c1C(=O)OC
inactive: dose: 6.25 mg/kg/injection, schedule: Q04DX003 (ip), vehicle: saline 95 % of control | [1] 95 % of control | [2] 95 % of control
